Calls of active or inactive are those of the source.
Experiments:
[1] = biological target: Phytoene desaturase (Gentiana lutea) (UniProt Q8W433); assay: Competitive inhibition of Gentiana lutea desaturase using decyl plastoquinone as cofactor and phytoene as substrate at 0.1 uM after 2 hr by double reciprocal plot analysis
[2] = biological target: 15-cis-phytoene desaturase (Synechococcus elongatus (strain PCC 7942) (Anacystis nidulans R2)) (UniProt P26294); assay: Competitive inhibition of Synechococcus phytoene desaturase using decyl plastoquinone as cofactor and phytoene as substrate at 0.1 uM after 2 hr by double reciprocal plot analysis
[3] = biological target: 15-cis-phytoene desaturase (Synechococcus elongatus (strain PCC 7942) (Anacystis nidulans R2)) (UniProt P26294); assay: Competitive inhibition of Synechococcus phytoene desaturase using NADP as cofactor and phytoene as substrate at 0.1 uM after 2 hr by double reciprocal plot analysis

Measured: inhibition

Chain of 15-cis-phytoene desaturase (Synechococcus elongatus (strain PCC 7942) (Anacystis nidulans R2)) (P26294 whole entry): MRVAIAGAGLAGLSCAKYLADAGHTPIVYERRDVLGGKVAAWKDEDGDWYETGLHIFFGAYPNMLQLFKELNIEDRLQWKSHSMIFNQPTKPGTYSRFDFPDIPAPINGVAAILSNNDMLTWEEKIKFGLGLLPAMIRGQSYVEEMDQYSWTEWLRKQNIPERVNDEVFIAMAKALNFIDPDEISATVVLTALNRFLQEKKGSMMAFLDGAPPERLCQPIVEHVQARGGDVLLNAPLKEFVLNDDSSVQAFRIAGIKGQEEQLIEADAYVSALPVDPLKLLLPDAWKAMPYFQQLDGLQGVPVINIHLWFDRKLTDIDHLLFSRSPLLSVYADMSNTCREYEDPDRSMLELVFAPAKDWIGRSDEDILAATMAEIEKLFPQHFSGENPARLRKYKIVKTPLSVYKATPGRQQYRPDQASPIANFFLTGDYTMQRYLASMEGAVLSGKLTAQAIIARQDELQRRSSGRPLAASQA
Chain of Phytoene desaturase (Gentiana lutea) (Q8W433 as listed by the source): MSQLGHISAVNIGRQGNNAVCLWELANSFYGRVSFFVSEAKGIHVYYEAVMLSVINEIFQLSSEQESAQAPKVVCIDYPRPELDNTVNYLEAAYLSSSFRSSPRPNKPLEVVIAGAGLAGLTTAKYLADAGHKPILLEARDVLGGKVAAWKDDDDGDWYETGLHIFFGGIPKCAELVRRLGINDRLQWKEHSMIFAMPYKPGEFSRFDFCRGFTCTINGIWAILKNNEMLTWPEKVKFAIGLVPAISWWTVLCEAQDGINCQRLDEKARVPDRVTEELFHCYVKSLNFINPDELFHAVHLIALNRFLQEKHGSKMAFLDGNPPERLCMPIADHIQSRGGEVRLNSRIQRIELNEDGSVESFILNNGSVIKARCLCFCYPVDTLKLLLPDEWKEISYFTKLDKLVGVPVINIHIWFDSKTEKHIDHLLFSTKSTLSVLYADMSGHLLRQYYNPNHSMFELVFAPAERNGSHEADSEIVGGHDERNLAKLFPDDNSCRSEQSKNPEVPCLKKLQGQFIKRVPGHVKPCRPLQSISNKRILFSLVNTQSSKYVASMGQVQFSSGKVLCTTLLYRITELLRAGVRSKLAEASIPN

CNc1cnn(-c2cccc(C(F)(F)F)c2)c(=O)c1Cl
active: all assays above

— ChEMBL document CHEMBL3046270, “Bleaching herbicide norflurazon inhibits phytoene desaturase by competition with the cofactors” (J Agric Food Chem, 2001)
